Test results as given in publication PMC6384730, “Systematic Identification of Thiosemicarbazides for Inhibition of Toxoplasma gondii Growth In Vitro” (Molecules, 2019).
≈ marks a conversion by molar mass, not a printed value. Where “and” joins values, the source holds several entries; their conditions need not be identical. Equal entries are not always repeated. Where two headings read alike, the source gives them in different places.

Key:
[1] = test system: T. gondii RH tachyzoites; assay: Influence on T. gondii proliferation ([3H]uracil incorporation) in infected Vero cells; type: cell-based, Toxoplasma gondii; conditions: Toxoplasma gondii, Vero
Method: Vero cell line (African green monkey kidney) (ATCC® CCL-81™) were maintained in EMEM (EMEM/10%HIFBS/P/S) (Eagle’s Minimum Essential Medium—ATCC® 30-2003™) culture medium supplemented with 10% HIFBS (Heat-Inactivated (1 h in 56°C) Fetal Bovine Serum—ATCC), 100 U/mL penicillin, 100 μg/mL streptomycin. The cell line was trypsinized (using Trypsin-EDTA Solution, 1X ATCC® 30-2101™) twice a week, and seeded at density 1 × 10^6 per T25 cell culture flask (Falcon), and incubated for 24–48 h at 37 °C and 5 CO2 to achieve a confluent monolayer. The highly virulent RH strain of Toxoplasma gondii, haplogroup I (ATCC® PRA-310™) were maintained as tachyzoites according to the ATCC product sheet, in DMEM (Dulbecco’s Modified Eagle’s Medium—ATCC® 30-2002™) (DMEM/3%HIFBS/P/S—parasite culture medium) under condition 37 °C and 5 CO2 and passage twice per week.
The Vero cells were seeded on 96-well plates (1 × 10^5 cells/100 µL/well) in EMEM/10%HIFBS/P/S. After 24 h of incubation medium was removed and then T. gondii RH tachyzoites were added to the cell monolayers at density 1 × 10^5 cells/100 µL/well in DMEM/3%HIFBS/P/S. One hour later different compounds and sulfadiazine dilutions (100 µL/well) in parasite culture medium were added to the cell monolayers with T. gondii. After subsequent 24 h of incubation 1 µCi/well [5,6-^3H] uracil (Moravek Biochemicals Inc., Brea, CA, USA) was applied to each microculture for further 72 h. The amount of the isotope incorporated into the parasite nucleic acid pool, corresponding to the parasite growth, was measured by liquid scintillation counting using 1450 Microbeta Plus Liquid Scintillation Counter (Wallac Oy, Turku, Finland). The results were expressed as counts per minute (CPM) and transformed to the percentage of viability compared to untreated cells. All experiments were performed in triplicate.

[2] = test system: L929 cells; assay: MTT cell viability (cytotoxicity) assay on L929 cells; type: cell-based, mouse; conditions: L929 cells, 24 h exposure
Method: (§1) Cells were trypsinized twice a week, and seeded at density 1 × 10^6 per T25 cell culture flask, and incubated for 24-48 h at 37 °C and 10% CO2 to achieve a confluent monolayer. […] The final concentration of DMSO in compounds dilutions was not higher than 1.00%. […] Dilution of the all compounds 2-22 and drug were freshly prepared before the cells were exposed. […] The MTT assay was used according to international standards: ISO 10993-5:2009(E), Biological evaluation of medical devices, Part 5: Tests for in vitro cytotoxicity. […] Afterward, the culture medium in the plates was replaced by 100 μL of compounds and sulfadiazine suspension and the cells were exposed for 24 h. Then, 1 mg/mL of MTT solution in RPMI 1640 without phenol red was prepared and 50 μL of the solution was added to each well and incubated at 37 °C, 10% CO2 for 2 h. Mitochondrial dehydrogenases of viable cells reduced the yellowish water-soluble MTT to water-insoluble formazan crystals, which were solubilized with dimethyl sulfoxide (DMSO). The cell culture medium was aspirated cautiously, after which 150 μL DMSO was added to each well, the plates were gently mixed, then 25 μL 0.1 M glycine buffer (pH = 10.5) (Sigma) was added. Optical density was read on the ELISA reader (Multiskan EX, Labsystems, Vienna, VA, USA) at 570 nm. The results were expressed as the percentage of viability compared to untreated cells. All experiments were performed in triplicate. Moreover, cells were treated with 4.0-0.03% concentration of DMSO as a compounds solvent (data not shown).

[3] = test system: Toxoplasma gondii; parameters: method as in PMID 25010466; conditions: previously reported; cited from earlier work
[4] = MTT cell viability (cytotoxicity) assay on L929 cells; type: cell-based, mouse; conditions: mouse, 24 h, % of untreated cells; for viability at 24 h, 62.5 µg/mL: 62.50 µg/mL
Method: as §1

[5] = IC50 greater than 125 µg/mL (highest concentration tested), calculated by extrapolation of the curves (GraphPad Prism), read-out: IC50 (50% inhibition of T. gondii proliferation in vitro), extrapolated
[6] = RH tachyzoites in Vero cells, [3H]uracil incorporation, highest concentration tested 125 µg/mL, read-out: IC50 (50% inhibition of T. gondii proliferation in vitro)

Row | Compound | melting point [°C] | CC30 (concentration required for 30% cells proliferation inhibition) [2] | viability at 24 h, 3.91 µg/mL ([4]; L929 mouse fibroblast cells) [%] | viability at 24 h, 7.81 µg/mL ([4]; L929 mouse fibroblast cells) [%] | viability at 24 h, 15.63 µg/mL ([4]; L929 mouse fibroblast cells) [%] | viability at 24 h, 31.25 µg/mL ([4]; L929 mouse fibroblast cells) [%] | viability at 24 h, 62.5 µg/mL ([4]; L929 mouse fibroblast cells) [%] | viability at 24 h, 125 µg/mL ([4]; L929 mouse fibroblast cells) [%] | viability at 24 h, 250 µg/mL ([4]; L929 mouse fibroblast cells) [%] | viability at 24 h, 500 µg/mL ([4]; L929 mouse fibroblast cells) [%] | IC50 [1, 6] [µg/mL] | other results
1 | Nc1ccc(S(=O)(=O)Nc2ncccn2)cc1 [Sulfadiazine, 4-amino-N-(2-pyrimidinyl)benzenesulfonamide, reference compound] |  | 1251.12 µg/mL |  |  |  |  |  |  |  |  |  | IC50 [1, 5]: ~2720 µg/mL (≈ 10900 µM); IC50 against proliferation of Toxoplasma gondii [3]: > 500 µg/mL
2 | Cc1nc[nH]c1C(=O)NNC(=S)NCCCl [Compound 9] | 175 to 177 | >500.00 µg/mL and >500 µg/mL |  |  |  |  |  |  |  |  |  | IC50 ([1]; read-out: IC50 (50% inhibition of T. gondii proliferation in vitro)): > 125 µg/mL; viability at 24 h, 3.91 µg/mL [4]: 100%; viability at 24 h, 7.81 µg/mL [4]: 98.3%; viability at 24 h, 15.63 µg/mL [4]: 97.1%; viability at 24 h, 31.25 µg/mL [4]: 96%; viability at 24 h, 62.5 µg/mL [4]: 95.6%; viability at 24 h, 125 µg/mL [4]: 94.4%; viability at 24 h, 250 µg/mL [4]: 92.8%; viability at 24 h, 500 µg/mL [4]: 87.4%
3 | Cc1nc[nH]c1C(=O)NNC(=S)Nc1cccc(F)c1 [Compound 11, 4-(3-Fluorophenyl)-1-(4-methylimidazol-5-oyl)thiosemicarbazide] | 191 to 192 | 95.50 µg/mL | 104 | 101 | 99.8 | 92.7 | 75.6 | 66 | 57.8 | 46.3 | ~118 (≈ 402 µM) | 
4 | O=C(NNC(=S)Nc1ccc(F)cc1)c1cccs1 [Compound 1] |  |  |  |  |  |  |  |  |  |  |  | IC50 against proliferation of Toxoplasma gondii [3]: 33.17 µg/mL; fold more potent than sulfadiazine [3]: at least 15 fold
5 | COc1cccc(NC(=S)NNC(=O)c2[nH]cnc2C)c1 [Compound 6, 4-(3-Methoxyphenyl)-1-(4-methylimidazol-5-oyl)thiosemicarbazide] | 196 to 198 | 165.96 µg/mL | 92.8 | 88.6 | 86.2 | 83.3 | 79.7 | 68.8 | 67.3 | 56.8 | 79.7 (≈ 261 µM) | 

Second part, led by results:

Row | melting point [°C] | Compound | CC30 (concentration required for 30% cells proliferation inhibition) [2] | viability at 24 h, 3.91 µg/mL ([4]; L929 mouse fibroblast cells) [%] | viability at 24 h, 7.81 µg/mL ([4]; L929 mouse fibroblast cells) [%] | viability at 24 h, 15.63 µg/mL ([4]; L929 mouse fibroblast cells) [%] | viability at 24 h, 31.25 µg/mL ([4]; L929 mouse fibroblast cells) [%] | viability at 24 h, 62.5 µg/mL ([4]; L929 mouse fibroblast cells) [%] | viability at 24 h, 125 µg/mL ([4]; L929 mouse fibroblast cells) [%] | viability at 24 h, 250 µg/mL ([4]; L929 mouse fibroblast cells) [%] | viability at 24 h, 500 µg/mL ([4]; L929 mouse fibroblast cells) [%] | IC50 [1, 6] [µg/mL] | other results
6 | 215 to 217 | Cc1nc[nH]c1C(=O)NNC(=S)Nc1ccc(N(C)C)cc1 [Compound 19, 1-(4-Methylimidazol-5-oyl)-4-(4-dimethyloaminophenyl)thiosemicarbazide] | 112.20 µg/mL | 93.1 | 91.8 | 85.7 | 80.8 | 78.6 | 68.5 | 60.8 | 53.3 |  | IC50 [1, 5]: ~165 µg/mL (≈ 517 µM)
7 | 225 to 227 | CCN(CC)c1ccc(NC(=S)NNC(=O)c2[nH]cnc2C)cc1 [Compound 20, 1-(4-Methylimidazol-5-oyl)-4-(4-diethyloaminophenyl)thiosemicarbazide] | 63.10 µg/mL | 102 | 93.6 | 85.7 | 71.3 | 67.9 | 66 | 53.4 | 12.9 | 25.7 (≈ 74.2 µM) | 
8 | 213 to 215 | Cc1ccc(NC(=S)NNC(=O)c2[nH]cnc2C)cc1Cl [Compound 14, 4-(3-Chloro-4-methylphenyl)-1-(4-methylimidazol-5-oyl)thiosemicarbazide] | 28.18 µg/mL | 101 | 91.5 | 76.6 | 67.5 | 61.5 | 49.3 | 21.1 | 10.4 | 18.6 (≈ 57.5 µM) | 
9 | 202 to 204 | Cc1nc[nH]c1C(=O)NNC(=S)Nc1c(C(C)C)cccc1C(C)C [Compound 22, 4-(2,6-Diisopropylphenyl)-1-(4-methylimidazol-5-oyl)thiosemicarbazide] | 190.55 µg/mL | 116 | 110 | 101 | 80.7 | 79.8 | 76.6 | 68.2 | 58.8 | 97.7 (≈ 272 µM) | 
